A word on the inhibition: it is the change of the read-out against control, counted positive when it falls.

Structures are written as SMILES. Read-outs that look alike come from different tables or passages of the source.

Common to all, as to test: SelectScreen Z'LYTE kinase profiling
Common to all, as to assay type: biochemical

One assay addresses CDK2/cyclin A (Homo sapiens, UniProt P24941). Conditions: ATP at apparent KM.
The next assay deals with RPS6KA5 (MSK1) (Homo sapiens, UniProt O75582). As to conditions: ATP at apparent KM.
The target of the next assay is PRKCH (PKC eta) (Homo sapiens, UniProt P24723). As to conditions: ATP at apparent KM.
For a further assay, the target named is T1, GRK7 (Homo sapiens, UniProt Q8WTQ7).
T1 sequence (Q8WTQ7 1-553): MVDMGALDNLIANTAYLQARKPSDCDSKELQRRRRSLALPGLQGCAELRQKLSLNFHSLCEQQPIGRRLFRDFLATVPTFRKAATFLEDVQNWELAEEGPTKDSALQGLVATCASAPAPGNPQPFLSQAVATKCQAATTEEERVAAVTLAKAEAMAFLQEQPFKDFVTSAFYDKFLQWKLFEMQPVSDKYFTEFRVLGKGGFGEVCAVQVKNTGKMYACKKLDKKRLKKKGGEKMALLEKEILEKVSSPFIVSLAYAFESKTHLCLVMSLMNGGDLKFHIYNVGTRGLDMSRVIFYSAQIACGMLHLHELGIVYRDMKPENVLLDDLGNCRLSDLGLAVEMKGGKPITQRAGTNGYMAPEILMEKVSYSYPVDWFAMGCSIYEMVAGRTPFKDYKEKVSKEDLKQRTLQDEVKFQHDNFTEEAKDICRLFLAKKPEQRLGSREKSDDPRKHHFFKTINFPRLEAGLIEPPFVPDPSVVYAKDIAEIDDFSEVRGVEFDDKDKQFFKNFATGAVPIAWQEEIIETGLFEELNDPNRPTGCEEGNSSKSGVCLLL
As to conditions: ATP at apparent KM.

In a further assay the target is T2, CHEK1 (CHK1) (Homo sapiens, UniProt O14757).
T2 sequence (O14757 1-476): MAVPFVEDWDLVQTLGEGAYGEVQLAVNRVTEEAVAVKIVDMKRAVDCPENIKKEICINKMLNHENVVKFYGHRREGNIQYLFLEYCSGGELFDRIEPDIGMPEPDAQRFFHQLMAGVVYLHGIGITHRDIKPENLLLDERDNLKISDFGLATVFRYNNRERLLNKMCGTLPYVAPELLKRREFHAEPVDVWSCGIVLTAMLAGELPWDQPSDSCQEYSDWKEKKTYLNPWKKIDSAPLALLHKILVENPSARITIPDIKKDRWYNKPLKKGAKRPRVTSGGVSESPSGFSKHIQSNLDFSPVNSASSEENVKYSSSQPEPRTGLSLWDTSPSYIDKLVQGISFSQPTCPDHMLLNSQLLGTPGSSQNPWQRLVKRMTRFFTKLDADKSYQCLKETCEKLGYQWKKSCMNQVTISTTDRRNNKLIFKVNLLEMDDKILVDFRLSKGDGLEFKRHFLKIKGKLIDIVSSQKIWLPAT
As to conditions: ATP at apparent KM.

A further assay addresses PRKCB2 (PKC beta II) (Homo sapiens, UniProt P05771). As to conditions: ATP at apparent KM.
Another assay addresses MAP4K5 (KHS1) (Homo sapiens, UniProt Q9Y4K4). Conditions: ATP at apparent KM.
The next assay concerns the target PASK (Homo sapiens, UniProt Q96RG2). Conditions: ATP at apparent KM.
The target of a further assay is AKT2 (PKB beta) (Homo sapiens, UniProt P31751).
Another assay deals with RET (Homo sapiens, UniProt P07949). As to conditions: ATP at apparent KM.
The target of a further assay is RPS6KB1 (p70S6K) (Homo sapiens, UniProt P23443). As to conditions: ATP at apparent KM.
The next assay has as its target ALK (Homo sapiens, UniProt Q9UM73). As to conditions: ATP at apparent KM.
A further assay deals with T3, JAK3 (Homo sapiens, UniProt P52333).
T3 sequence (P52333 1-1124): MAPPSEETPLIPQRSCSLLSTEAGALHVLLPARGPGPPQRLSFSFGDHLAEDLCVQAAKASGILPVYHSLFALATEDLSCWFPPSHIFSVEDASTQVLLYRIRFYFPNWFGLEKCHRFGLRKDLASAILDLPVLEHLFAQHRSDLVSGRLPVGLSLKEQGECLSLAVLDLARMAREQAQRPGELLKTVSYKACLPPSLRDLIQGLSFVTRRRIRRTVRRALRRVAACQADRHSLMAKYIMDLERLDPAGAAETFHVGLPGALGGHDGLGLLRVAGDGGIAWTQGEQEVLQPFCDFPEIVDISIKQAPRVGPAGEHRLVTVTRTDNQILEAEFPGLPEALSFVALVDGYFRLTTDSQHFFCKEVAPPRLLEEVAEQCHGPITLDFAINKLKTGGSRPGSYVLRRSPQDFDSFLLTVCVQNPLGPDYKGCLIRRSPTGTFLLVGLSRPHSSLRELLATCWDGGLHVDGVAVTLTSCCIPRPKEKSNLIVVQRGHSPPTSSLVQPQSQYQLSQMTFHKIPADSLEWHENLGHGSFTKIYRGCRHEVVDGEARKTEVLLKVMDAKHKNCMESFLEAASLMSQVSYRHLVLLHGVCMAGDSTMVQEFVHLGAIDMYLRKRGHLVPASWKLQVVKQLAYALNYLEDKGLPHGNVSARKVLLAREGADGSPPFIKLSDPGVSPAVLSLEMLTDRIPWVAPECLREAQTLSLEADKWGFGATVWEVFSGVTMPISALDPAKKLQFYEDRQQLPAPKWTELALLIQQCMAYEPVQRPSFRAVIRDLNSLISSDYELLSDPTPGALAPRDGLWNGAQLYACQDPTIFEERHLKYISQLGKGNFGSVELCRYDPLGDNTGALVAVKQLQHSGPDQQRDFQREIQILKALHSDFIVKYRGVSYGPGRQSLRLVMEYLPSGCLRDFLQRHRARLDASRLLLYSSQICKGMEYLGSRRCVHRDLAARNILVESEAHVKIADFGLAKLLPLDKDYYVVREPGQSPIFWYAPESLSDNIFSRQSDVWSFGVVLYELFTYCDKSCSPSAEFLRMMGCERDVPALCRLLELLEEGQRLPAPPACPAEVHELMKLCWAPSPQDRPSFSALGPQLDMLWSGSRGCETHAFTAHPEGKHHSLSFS
Conditions: ATP at apparent KM.

For another assay, the target named is MAPKAPK2 (Homo sapiens, UniProt P49137). Conditions: ATP at apparent KM.
The target of the next assay is ERBB2 (HER2) (Homo sapiens, UniProt P04626). As to conditions: ATP at apparent KM.

Sequence of PASK (Q96RG2 whole entry): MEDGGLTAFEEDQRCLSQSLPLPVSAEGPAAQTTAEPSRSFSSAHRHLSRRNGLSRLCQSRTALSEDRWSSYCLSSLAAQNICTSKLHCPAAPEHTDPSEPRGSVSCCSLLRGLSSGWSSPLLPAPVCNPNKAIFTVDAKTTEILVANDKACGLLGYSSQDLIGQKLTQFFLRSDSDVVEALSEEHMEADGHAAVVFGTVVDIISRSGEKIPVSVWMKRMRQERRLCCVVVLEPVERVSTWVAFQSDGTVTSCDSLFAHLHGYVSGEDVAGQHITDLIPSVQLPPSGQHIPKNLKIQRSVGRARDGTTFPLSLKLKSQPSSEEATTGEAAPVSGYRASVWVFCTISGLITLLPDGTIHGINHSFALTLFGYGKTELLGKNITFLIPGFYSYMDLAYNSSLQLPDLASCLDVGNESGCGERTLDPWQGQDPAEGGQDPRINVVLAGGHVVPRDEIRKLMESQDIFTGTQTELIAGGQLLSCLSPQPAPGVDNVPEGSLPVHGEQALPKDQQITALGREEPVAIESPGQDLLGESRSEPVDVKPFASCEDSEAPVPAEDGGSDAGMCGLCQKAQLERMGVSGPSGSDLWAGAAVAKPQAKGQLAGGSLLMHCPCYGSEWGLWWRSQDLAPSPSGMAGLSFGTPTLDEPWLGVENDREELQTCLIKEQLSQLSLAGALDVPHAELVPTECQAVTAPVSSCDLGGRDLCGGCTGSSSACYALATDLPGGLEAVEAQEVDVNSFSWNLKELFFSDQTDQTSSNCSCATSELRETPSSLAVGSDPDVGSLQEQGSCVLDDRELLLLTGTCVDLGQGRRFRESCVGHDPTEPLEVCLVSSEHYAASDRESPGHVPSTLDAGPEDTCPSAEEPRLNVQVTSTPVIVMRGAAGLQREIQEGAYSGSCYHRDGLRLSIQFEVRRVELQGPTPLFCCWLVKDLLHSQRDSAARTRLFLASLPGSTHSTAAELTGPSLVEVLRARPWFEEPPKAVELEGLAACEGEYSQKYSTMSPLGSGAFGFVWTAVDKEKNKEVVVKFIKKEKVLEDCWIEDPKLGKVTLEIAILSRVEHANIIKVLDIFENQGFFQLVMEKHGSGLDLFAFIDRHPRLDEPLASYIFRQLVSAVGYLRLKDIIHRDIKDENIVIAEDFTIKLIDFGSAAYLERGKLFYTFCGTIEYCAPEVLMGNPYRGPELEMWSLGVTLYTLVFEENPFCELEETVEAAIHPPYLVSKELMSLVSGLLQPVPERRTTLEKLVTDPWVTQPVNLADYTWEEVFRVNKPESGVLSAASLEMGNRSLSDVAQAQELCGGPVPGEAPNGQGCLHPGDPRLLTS
Sequence of AKT2 (PKB beta) (P31751 whole entry): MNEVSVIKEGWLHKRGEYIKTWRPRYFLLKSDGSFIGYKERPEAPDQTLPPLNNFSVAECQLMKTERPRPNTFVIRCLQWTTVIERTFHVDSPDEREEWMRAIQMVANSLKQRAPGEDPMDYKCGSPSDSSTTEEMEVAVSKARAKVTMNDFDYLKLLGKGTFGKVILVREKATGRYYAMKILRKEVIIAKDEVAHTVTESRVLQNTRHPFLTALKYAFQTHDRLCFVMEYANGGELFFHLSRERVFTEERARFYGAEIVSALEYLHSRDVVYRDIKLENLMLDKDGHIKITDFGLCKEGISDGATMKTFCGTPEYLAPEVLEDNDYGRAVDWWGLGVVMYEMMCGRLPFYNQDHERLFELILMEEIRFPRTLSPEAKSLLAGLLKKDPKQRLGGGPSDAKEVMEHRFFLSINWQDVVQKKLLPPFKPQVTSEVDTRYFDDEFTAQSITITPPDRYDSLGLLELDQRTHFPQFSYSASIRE
Sequence of RET (P07949 29-1114): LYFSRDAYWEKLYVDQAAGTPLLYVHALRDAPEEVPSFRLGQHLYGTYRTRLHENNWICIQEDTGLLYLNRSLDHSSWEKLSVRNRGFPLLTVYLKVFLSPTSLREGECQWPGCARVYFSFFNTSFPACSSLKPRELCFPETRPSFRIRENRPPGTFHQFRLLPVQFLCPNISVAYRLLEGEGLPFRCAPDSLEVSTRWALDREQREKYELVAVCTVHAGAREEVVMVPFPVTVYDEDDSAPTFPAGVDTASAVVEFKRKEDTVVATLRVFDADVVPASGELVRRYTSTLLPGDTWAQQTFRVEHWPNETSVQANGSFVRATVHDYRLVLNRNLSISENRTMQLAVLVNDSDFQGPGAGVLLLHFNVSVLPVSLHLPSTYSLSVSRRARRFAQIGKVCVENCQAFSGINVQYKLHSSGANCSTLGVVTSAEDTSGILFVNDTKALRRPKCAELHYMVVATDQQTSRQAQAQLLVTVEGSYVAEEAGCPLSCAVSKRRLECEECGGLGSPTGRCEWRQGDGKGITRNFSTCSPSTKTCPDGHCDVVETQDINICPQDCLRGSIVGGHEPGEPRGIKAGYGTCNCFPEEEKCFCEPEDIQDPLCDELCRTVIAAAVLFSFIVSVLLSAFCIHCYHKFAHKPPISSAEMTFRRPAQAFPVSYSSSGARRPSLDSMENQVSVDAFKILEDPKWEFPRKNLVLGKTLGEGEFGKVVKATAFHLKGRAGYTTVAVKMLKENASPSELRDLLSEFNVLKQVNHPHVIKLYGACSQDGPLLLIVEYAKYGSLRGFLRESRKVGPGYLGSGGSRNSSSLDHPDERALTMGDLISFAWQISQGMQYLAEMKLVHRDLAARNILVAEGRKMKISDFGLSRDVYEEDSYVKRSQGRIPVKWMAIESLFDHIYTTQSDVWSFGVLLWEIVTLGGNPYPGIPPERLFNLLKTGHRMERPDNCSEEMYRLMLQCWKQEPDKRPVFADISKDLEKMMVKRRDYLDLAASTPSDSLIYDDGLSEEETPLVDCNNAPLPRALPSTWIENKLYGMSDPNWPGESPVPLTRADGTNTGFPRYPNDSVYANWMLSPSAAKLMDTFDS
Sequence of RPS6KB1 (p70S6K) (P23443 whole entry): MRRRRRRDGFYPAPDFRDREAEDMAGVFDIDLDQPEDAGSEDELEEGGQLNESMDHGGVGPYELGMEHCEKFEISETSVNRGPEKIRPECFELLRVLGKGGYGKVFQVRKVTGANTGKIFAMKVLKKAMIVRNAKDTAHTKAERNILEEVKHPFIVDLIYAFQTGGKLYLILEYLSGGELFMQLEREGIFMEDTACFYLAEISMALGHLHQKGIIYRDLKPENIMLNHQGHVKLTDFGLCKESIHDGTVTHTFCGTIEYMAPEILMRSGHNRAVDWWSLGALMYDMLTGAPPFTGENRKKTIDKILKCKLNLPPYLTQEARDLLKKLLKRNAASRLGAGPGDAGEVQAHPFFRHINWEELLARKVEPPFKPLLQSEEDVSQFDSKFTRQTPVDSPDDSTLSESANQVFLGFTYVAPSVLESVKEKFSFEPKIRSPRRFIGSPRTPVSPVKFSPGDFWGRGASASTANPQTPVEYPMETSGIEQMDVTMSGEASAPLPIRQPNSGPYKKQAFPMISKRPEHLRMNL
Sequence of MAPKAPK2 (P49137 whole entry): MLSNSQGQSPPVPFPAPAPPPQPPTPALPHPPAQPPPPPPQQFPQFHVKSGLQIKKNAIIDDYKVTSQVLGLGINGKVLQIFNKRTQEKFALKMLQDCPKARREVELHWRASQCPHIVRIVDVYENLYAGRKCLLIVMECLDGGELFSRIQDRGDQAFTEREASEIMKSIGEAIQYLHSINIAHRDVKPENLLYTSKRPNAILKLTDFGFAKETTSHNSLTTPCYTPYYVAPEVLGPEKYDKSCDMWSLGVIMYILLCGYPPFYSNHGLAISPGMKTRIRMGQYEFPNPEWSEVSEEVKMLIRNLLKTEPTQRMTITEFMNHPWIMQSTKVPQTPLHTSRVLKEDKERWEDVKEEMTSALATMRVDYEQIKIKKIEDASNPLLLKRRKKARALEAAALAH
Sequence of RPS6KA5 (MSK1) (O75582 whole entry): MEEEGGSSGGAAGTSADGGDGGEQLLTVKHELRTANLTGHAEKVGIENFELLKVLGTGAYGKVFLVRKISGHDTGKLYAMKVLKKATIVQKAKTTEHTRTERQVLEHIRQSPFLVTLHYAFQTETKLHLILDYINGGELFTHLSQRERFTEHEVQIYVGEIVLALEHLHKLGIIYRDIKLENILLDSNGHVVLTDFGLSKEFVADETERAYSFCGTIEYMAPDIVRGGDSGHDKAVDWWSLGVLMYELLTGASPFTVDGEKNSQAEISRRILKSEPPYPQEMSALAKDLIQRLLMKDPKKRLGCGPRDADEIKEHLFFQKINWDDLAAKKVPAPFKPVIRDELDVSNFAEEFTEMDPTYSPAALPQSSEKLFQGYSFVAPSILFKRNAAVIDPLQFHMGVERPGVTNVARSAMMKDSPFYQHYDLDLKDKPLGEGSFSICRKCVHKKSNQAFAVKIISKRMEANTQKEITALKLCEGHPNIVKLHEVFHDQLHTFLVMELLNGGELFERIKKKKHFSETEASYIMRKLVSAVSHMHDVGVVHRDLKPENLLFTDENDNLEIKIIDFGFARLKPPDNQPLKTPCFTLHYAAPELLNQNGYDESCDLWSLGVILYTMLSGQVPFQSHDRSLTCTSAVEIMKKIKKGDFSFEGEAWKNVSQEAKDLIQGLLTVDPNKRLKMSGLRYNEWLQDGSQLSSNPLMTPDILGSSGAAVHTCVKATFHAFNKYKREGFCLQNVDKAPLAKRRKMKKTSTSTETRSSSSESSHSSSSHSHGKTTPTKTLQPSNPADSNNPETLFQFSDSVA
Experimental for ALK: (§1) protein kinases at a compound concentration of 1 µM. Measurements were performed in duplicates
(§2) and at the particular apparent ATP KM of each individual kinase employing the activity based Z’LYTE®
(§3) kinase assay of the SelectScreen® Kinase Profiling Services (ThermoFisher Scientific).
(§4) kinases at a compound concentration of 1 µM. Measurements were performed in duplicates and at
(§5) the particular apparent ATP KM of each individual kinase employing the activity based Z’LYTE® kinase
(§6) assay of the SelectScreen® Kinase Profiling Services (ThermoFisher Scientific).
Experimental for CDK2/cyclin A: as §1, §2, §3, §4, §5, §6
Experimental for CHEK1 (CHK1): as §1, §2, §3, §4, §5, §6
Experimental for ERBB2 (HER2): as §1, §2, §3, §4, §5, §6
Experimental for GRK7: as §1, §2, §3, §4, §5, §6
Experimental for JAK3: as §1, §2, §3, §4, §5, §6
Experimental for MAP4K5 (KHS1): as §1, §2, §3, §4, §5, §6
Experimental for MAPKAPK2: as §1, §2, §3, §4, §5, §6
Experimental for PASK: as §1, §2, §3, §4, §5, §6
Experimental for PRKCB2 (PKC beta II): as §1, §2, §3, §4, §5, §6
Experimental for PRKCH (PKC eta): as §1, §2, §3, §4, §5, §6
Experimental for RET: as §1, §2, §3, §4, §5, §6
Experimental for RPS6KA5 (MSK1): as §1, §2, §3, §4, §5, §6

Turning to `C=CC(=O)Nc1ccc2c(c1)n(C1CCN(Cc3ccc(-c4nc5cc[nH]c(=O)c5cc4-c4ccccc4)cc3)CC1)c(=O)n2C` [24b], the inhibition at 1 µM is 7% at CDK2/cyclin A; 8% at RPS6KA5 (MSK1); 7% on PRKCH (PKC eta); -4% at GRK7; -3% on CHEK1 (CHK1); -5% at PRKCB2 (PKC beta II). Further, the inhibition at 1 µM was 3% at MAP4K5 (KHS1); 4% at PASK; 97% at AKT2 (PKB beta) (1 µM, ATP at apparent KM, read-out: % inhibition); 10% on RET; 32% on RPS6KB1 (p70S6K); -3% on ALK. The inhibition at 1 µM is 23% at JAK3, 29% on MAPKAPK2 and -1% on ERBB2 (HER2).
`C=CC(=O)Nc1cccc(C(=O)NC2CCN(Cc3ccc(-c4nc5cc[nH]c(=O)c5cc4-c4ccccc4)cc3)CC2)c1` [30b]: the inhibition at 1 µM on CDK2/cyclin A was 11%; on RPS6KA5 (MSK1) it was 13%; on PRKCH (PKC eta), 14%; on GRK7, 5%; on CHEK1 (CHK1) it was 9%; on PRKCB2 (PKC beta II), -1%. Moreover, the inhibition at 1 µM on MAP4K5 (KHS1) came out at 18%; at PASK, 29%; against AKT2 (PKB beta), 76%; on RET, 19%; on RPS6KB1 (p70S6K) it was 8%; at ALK, 1%. Also, the inhibition at 1 µM on JAK3 was 26%; on MAPKAPK2, 31%; on ERBB2 (HER2) it was -2%.
In the case of `C=CC(=O)Nc1cc(NC(=O)NC2CCN(Cc3ccc(-c4nc5cc[nH]c(=O)c5cc4-c4ccccc4)cc3)CC2)ccc1Cl` [compound 27], the inhibition at 1 µM at CDK2/cyclin A was 6%; at RPS6KA5 (MSK1) it was 13%; at PRKCH (PKC eta), 21%; at GRK7, 5%; at CHEK1 (CHK1) it was 8%; at PRKCB2 (PKC beta II) it was -12%. The inhibition at 1 µM at MAP4K5 (KHS1) was 5%; on PASK, 61%; against AKT2 (PKB beta) it was 80%; on RET, 26%; at RPS6KB1 (p70S6K), 29%; at ALK, 2%. The inhibition at 1 µM stood at 17% on JAK3, 33% on MAPKAPK2 and 0% at ERBB2 (HER2).

The values above are taken from publication PMC6430017, “Structural and chemical insights into the covalent-allosteric inhibition of the protein kinase Akt” (Chemical Science, 2019).
